What was measured:
[1] = test system: CFU-E; assay: Colony formation assay (CFA), cord blood LDMNC: CFU-E colonies; type: cell-based, human; settings: for CFU-E progenitor number, fold increase: 2 U/ml Epo, ambient O2, vs vehicle control; for fold increase in CFU-E at 5% O2: 5% O2, 2 U/ml Epo, 1.0 mg/ml HAo or HEMOLINK, 100 μM hemin, relative to untreated controls at ambient O2
Description: This technique, referred to as the colony formation assay (CFA), is the most widely used biological assay to identify and enumerate erythroid progenitors present in hematopoietic tissue such as blood and bone marrow. Cell populations containing erythroid progenitors are plated in semi-solid suspensions of methyl cellulose, agar, low melting agarose or related substances in nutrient culture medium containing 1-3 U/ml Epo and 10 ng/ml IL-3 to specifically stimulate erythroid progenitors. Plates are incubated at 37° C. for 14 days during which time the erythroid progenitors form characteristic hemoglobinized (red) colonies. Two distinct but related erythroid progenitors can be distinguished based on colony size and morphology: BFU-E, the most primitive recognizable erythroid progenitor forms large multilobular colonies whereas the more mature CFU-E forms smaller spherical colonies.
Adult hemoglobin was purified according to U.S Pat. Nos. 5,439,591 and 5,545,328 to obtain HAo and HEMOLINK™ was prepared from HAo according to U.S. Pat. No. 5,532,352. Human umbilical cord blood intended for discard was collected from the umbilical vein of placentas immediately postpartum into 10 ml vacutainer tubes containing 143 USP units/ml sodium heparin. Low density mononuclear cells were separated from red blood cells by centrifugation over a 1.077 g/ml density gradient Cells removed from the plasma/density gradient interface were incubated overnight in a tissue culture flask with 10 ml cell culture medium containing 10% fetal bovine serum, and non-adherent LDMNC were further purified with an additional density gradient step. The LDMNC were then plated into colony formation assays (CFA) on the second day of isolation. In the CFA, LDMNC were plated at a density of 1×10^5 cells/ml in Iscoves modified Dulbeccos cell culture medium containing 0.8% methyl-cellulose, 30% fetal bovine serum, 1% bovine serum albumin, 0.1 mM 2-mercaptoethanol and 2 mM L-glutamine. Unless indicated otherwise, under standard CFA conditions 2 U/ml Epo and 10 ng/ml IL-3 are added to the formulation to stimulate hematopoietic progenitor growth, specifically BFU-E, CFU-E and CFU-GM.
Each condition was tested in duplicate in from 2-18 independent experiments. Cultures were maintained in a humidified incubator at 37° C., 5% CO2 and ambient oxygen tensions. The number of hematopoietic progenitors was scored between days 13-15 by counting the number and types of colonies present.
Erythroid progenitor colony formation assays were conducted as described in Example 1 except that cultures were incubated at either ambient oxygen tensions (˜20% O2) or 5% O2. The reduced oxygen tension of 5% O2 approximates the physiological intravascular oxygen tension in mammals. The mean fold increase in cord blood BFU-E, CFU-E and CFU-GM progenitor number at 5% O2 produced by 1.0 mg/ml HAo (15.6 μM; n=11) or HEMOLINK™ (15.6 μM; n=6), 100 μM hemin (n=10), 250 μM FeCl3 (n=6) or no addition (n=17-18), is shown FIG. 2. Results are expressed relative to control cells treated only with respective vehicles and cultured at ambient oxygen tensions (˜20% O2; fold expansion=1.0; *p<0.05, **p<0.01).
Erythroid progenitor colony formation assays were conducted as described in Example 1 except that cultures were initiated in the presence of Epo concentrations ranging from 0-2 U/ml. The mean fold increase in cord blood BFU-E, CFU-E and CFU-GM progenitor number produced by 1.0 mg/ml HAo (15.6 μM; n=9) or HEMOLINK™ (15.6 μM; n=6), 100 μM hemin (n=8), 250 μM FeCl3 (n=6), or no addition (n=9-10) in the presence of reduced Epo concentrations (0.2 U/ml) is shown in FIG. 3. Cultures were maintained at ambient oxygen tensions (˜20% O2) for 14 days. Results are expressed relative to control cells at 2 U/ml Epo treated only with the respective vehicles (solid line at fold expansion=1.0; *p<0.05, **p<0 01). Erythroid progenitor colonies were undetectable in the absence of Epo. […]

[2] = test system: cord blood LDMNC; assay: Erythroid differentiation of cord blood LDMNC in liquid culture; type: cell-based, human; settings: 20 days
Description: The ability of purified adult hemoglobin to stimulate erythroid progenitor differentiation has also been studied using a liquid culture system containing Epo. In this liquid culture system hemin is known to accelerate erythroid differentiation of progenitors obtained from normal adult peripheral blood, and to selectively increase fetal hemoglobin production in these cells. Primary low density mononuclear cells (LDMNC) isolated from cord blood were tested in this culture system. […] The addition of HAo (7.8-15.6 μM) to the cultures results in a further increase in glycophorin A/CD71 co-expression (80% vs. 53% in the Epo only control) and benzidine staining (82% vs. 43% in the Epo only control) after 20 days in culture.
The effect of HAo on erythroid differentiation was tested on cord blood LDMNC. […] 1.0 mg/ml HAo (15.6 μM) was added to Epo-stimulated cultures and the cultured cells were analyzed by flow cytometry (Epics Elite, Coulter) after 20 days for the co-expression of the red cell-specific marker, glycophorin A, and the transferrin receptor, CD71. […] Cultured cells were stained with anti-CD71 (abscissa) and anti-glycophorin A (ordinate) antibodies and the number of single- or double-stained cells (z-axis) analyzed. […] The percentage of glycophorin A^+/CD71^+ cells was determined from analysis of at least 6,500 cells per sample.

[3] = Safety in animal experiments and Phase I clinical trial; type: in vivo; settings: series of animal experiments and Phase I clinical trial in humans
From the text: A preferred embodiment of the present invention is the therapeutic application of hemoglobin to the treatment of anemia. HEMOLINK™ is a hemoglobin based oxygen carrier intended for use as a red blood cell substitute at doses that may exceed. 100 g. […] The present invention specifically proposes the repetitive administration of HEMOLINK™ in small doses to patients with anemia of any type. The anemias most amenable to hemoglobin therapy include: (1) anemias due to insufficient Epo production, including chronic renal failure, malaria, AIDS, rheumatoid arthritis, anemia of cancer, sickle cell anemia, prematurity and late anemia associated with Rhesus hemolytic disease of the newborn; (2) anemias due to inadequate iron incorporation, including iron-deficient anemias and anemias associated with chronic disease (e.g. infection, inflammation, trauma, or neoplastic diseases); and (3) anemias due to bone marrow failure that may be idiopathic or drug-induced.

Compound: [Cl][Fe]([Cl])[Cl] [FeCl3]
- CFU-E progenitor number, fold increase ([1]; dose 1.0 μM): 1.0 fold
- CFU-E progenitor number, fold increase ([1]; dose 10 μM): 1.2 fold
- CFU-E progenitor number, fold increase ([1]; dose 250 μM): 1.1 fold

Compound: C=CC1=C(C)C2=Cc3c(C=C)c(C)c4[n]3[Fe-2]35([Cl])[n]6c(c(C)c(CCC(=O)O)c6=CC6=[N+]3C(=C4)C(C)=C6CCC(=O)O)=CC1=[N+]25 [hemin]
- fold increase in CFU-E at 5% O2 [1]: ~3 fold
- CFU-E progenitor number, fold increase ([1]; dose 1.0 μM): 1.2 fold
- CFU-E progenitor number, fold increase ([1]; dose 10 μM): *1.6 fold
- CFU-E progenitor number, fold increase ([1]; dose 64 μM): 1.8 fold
- CFU-E progenitor number, fold increase ([1]; dose 250 μM): 2.2 fold

Compound: HAo: adult human hemoglobin obtained from red blood cells and purified by displacement chromatography; uncross linked product
- percentage of cells co-expressing glycophorin A and CD71 ([2]; HAo 1.0 mg/ml (15.6 μM; b99: 7.8-15.6 μM), Epo-stimulated, untreated 53%): 80%
- benzidine staining ([2]; HAo 7.8-15.6 μM, 2 U/ml Epo, Epo only control 43%): 82%
- fold increase in CFU-E at 5% O2 [1]: ~3 fold
- CFU-E progenitor number, fold increase ([1]; dose 10 μg/ml): 1.2 fold
- CFU-E progenitor number, fold increase ([1]; dose 100 μg/ml): 1.5 fold
- CFU-E progenitor number, fold increase ([1]; dose 500 μg/ml): *1.4 fold

Compound: HEMOLINK™: chemically crosslinked hemoglobin prepared by treating human hemoglobin with a polyaldehyde (O-raffinose)
- protection of CFU-E from ganciclovir toxicity ([1]; 1 mg/ml HEMOLINK plus 0-100 μM ganciclovir): protects CFU-E
- fold increase in CFU-E at 5% O2 [1]: ~3 fold
- safety [3]: demonstrated to be safe
